# Source: patent publication US8558056B2, “LysM receptor-like kinases to improve plant defense response against fungal pathogens” (The Curators of the University of Missouri, priority 2006, dated 2013)
# Key:
# [1] = system: AtLysM RLK1 mutant gene expression (chitooligosaccharide-responsive genes, CRGs); assay: Affymetrix ATH1 whole genome array, response to chitooctaose in the AtLysM RLK1 mutant; format: in vivo, Arabidopsis thaliana
# Protocol: (§1) More particularly, Arabidopsis seedlings were grown hydroponically as described by Ramonell et al., 2005. Fourteen-day old seedlings were treated with chitooctaose (Sigma, St. Louis, Mo., USA) at a concentration of 1 μM or with distilled water (as a control) for 30 minutes. To test flagellin-responsive genes, 14-day old seedlings were also treated with the flagellinderived flg22 peptide (dissolved in dimethyl sulfoxide, DMSO) at a final concentration of 10 μM or with an equivalent amount of DMSO (as a control) for 30 minutes. To test other defense pathways, Arabidopsis seedlings were also treated for 24 hours with 5 mM SA, 100 μM MeJA, and 0.5 mM ACC (all obtained from Sigma, St. Louis, Mo., USA) and dissolved in 0.1% ethanol. The control plants were similarly treated with an equivalent amount of ethanol. After treatment, the seedlings were collected and frozen in liquid nitrogen for RNA isolation.
# (§2) Total RNA was isolated using the Trizol Reagent according to the manufacturer's instructions (Invitrogen, Carlsbad, Calif.). The isolated RNA was further purified using Qiagen RNeasy Mini Columns according to the manufacturer's instruction (Qiagen, Valencia, Calif., USA) and treated with Turbo™ DNase (Ambion, Austin, Tex., USA). For semi-quantitative RT-PCR or quantitative 17 PCR, cDNA was synthesized using M-MLV reverse transcriptase according to the manufacturer's instructions (Promega, Madison, Wis., USA).
# The AtLysM RLK1 insertion mutant (096F09) used in the current work was generated in the context of the GABI-Kat program and provided by Bernd Weisshaar (MPI for Plant Breeding Research, Cologne, Germany). See Shibuya et al., 2001. The homozygous plants were identified by genotyping using the following gene-specific primers: […]
# (§3) Gene expression profiles in the AtLysM RLK1 mutant in response to chitooctaose were studied using the Affymetrix Arabidopsis Whole Genome Array ATH1 (with ˜22000 genes), with wild-type plants as a control. […] A row represents a gene and each column represents a sample. WT-8mer=wild-type Col-0 treated with chitooctaose; WT-water=wild-type Col-0 treated with distilled water; Mu-water=the AtLysM RLK1 mutant treated with distilled water; Mu-8mer=the AtLysM RLK1 mutant treated with chitooctaose. The color bar below the cluster picture: the red color indicates the expression level of a gene is above the mean expression of the gene across all samples; the green color indicates expression lower than the mean.
# AtLysM RLK1 gene = assay: RT-PCR of AtLysM RLK1 gene expression after elicitor treatment; format: in vivo, Arabidopsis thaliana; conditions: seedlings, chitooctaose 1 μM, 30 minutes
# Protocol: as §1
# These two primers were also used to detect the expression of the AtLysM RLK1 gene via RT-PCR. The other primers used to detect the transcript 5′ of the insertion site were as follows:
# The expression pattern of the AtLysM RLK1 gene was also studied. […]
# Alternaria brassicicola = assay: Pretreatment before inoculation with Alternaria brassicicola (lesion size, spore production); format: in vivo, Arabidopsis thaliana
# Text: The susceptibility appeared to be less than that observed in NahG plants, which express salicylate hydrolase, preventing the accumulation of salicylic acid, and are therefore very susceptible to the fungal pathogen (FIG. 13A). […] Arrows indicate sites where conidiophores are forming. All photographs were taken six days after inoculation. Bar=0.1 mm. 4-week-old plants were also inoculated with the necrotrophic fungus Alternaria brassicicola. Three days after inoculation, the mutant developed slightly bigger lesions than the wild-type plants, as measured by average diameter of the lesions (FIGS. 13C and 13D). In agreement with this, the mutant plants also produced more spores per lesion than the wild-type plants (FIG. 13E).
# (§4) To test the specificity of AtLysM RLK1 in fungal disease resistance, the response of the mutant to the bacterial pathogen Pseudomonas syringae pv. Tomato DC3000 was also examined. […] WT=wild-type Col-0; Mu=the AtLysM RLK1 mutant. CSC=crab shell chitin, 8mer=chitooctaose, and water=distilled water. Empty columns=WT Col-0 and solid black columns=the AtLysM RLK1 mutant. Asterisks indicate statistically significant differences between the mutant and wild-type plants (P<0.05). Error bars=standard error. Each experiment was repeated at least twice with similar results.
# [2] = system: Pseudomonas syringae pv. tomato DC3000; assay: Pretreatment before inoculation with Pseudomonas syringae pv. tomato DC3000 (bacterial growth); format: in vivo, Arabidopsis thaliana
# Text: as §4
# [3] = system: Arabidopsis LysM RLK genes; assay: DNA microarray (Affymetrix 24K chip) of plants sprayed with chitin; format: in vivo, Arabidopsis thaliana; conditions: leaves sprayed with chitin (100 μM)+0.2% Tween-20
# Protocol: A total of five LysM receptor-like kinase genes were identified in Arabidopsis from the studies described in Example 1. The Genbank numbers of these five genes are AtLYK1 (GenBank accession #At3g21630), AtLYK2 (GenBank accession # At3g01840), AtLYK3 (GenBank accession #At1g51940), AtLYK4 (GenBank accession # At2g23770), AtLYK5 (GenBank accession #At2g33580), and, which are designated as SEQ ID. Nos. 3-7, respectively. A DNA microarray experiment was performed by treating Arabidopsis plants with chitin. Leaves were treated by spraying with chitin (100 μM)+0.2% Tween-20. The Affymetrix 24K Arabidopsis genome chip was utilized according to the manufacturer's instructions for this test. […] The data implicate these genes in plant chitin response.
# soybean LysM RLK genes = assay: Expression analysis of GmLysM receptor-like kinases in chitin-treated leaves; format: in vivo; conditions: leaves sprayed with chitin (100 μM)+0.2% Tween-20
# Protocol: Soybean genotypes used for mapping of soybean QTLs for white mold resistance included Corsoy 79 and Dassel. […] Finally, as was the case with Arabidopsis, some of the soybean LysM RLK genes are induced upon treatment of soybean with chitin, as confirmed by the results shown in FIG. 20. Leaves were treated by spraying with chitin (100 μM)+0.2% Tween-20.
# transcription factors = assay: qRT-PCR of transcription factors after chitin treatment; design: species or system Arabidopsis thaliana; conditions: in vivo
# Protocol: Based on the genome-wide gene expression studies using microarrays, quantitative reverse transcriptase-polymerase chain reaction (qRT-PCR) was conducted to identify over 120 different transcription factors in Arabidopsis thaliana whose expression is enhanced by chitin treatment. Many of these transcription factors are known to be involved in fungal pathogen response. […] Each of these transcription factors is a potential target for genetic manipulation in order to enhance disease resistance. The results of this study are described in greater details in Libault et al., 2007, which is hereby expressly incorporated by reference.
# [4] = system: wild-type Col-0 gene expression (chitooligosaccharide-responsive genes, CRGs); assay: Affymetrix ATH1 whole genome array, response to chitooctaose in wild-type plants; format: in vivo, Arabidopsis thaliana
# Protocol: as §1, §2, §3
# [5] = system: selected CRGs (MPK3, WRKY22, WRKY29, WRKY33, WRKY53); assay: Semi-quantitative RT-PCR of selected CRGs after chitooctaose; format: in vivo, Arabidopsis thaliana; conditions: chitooctaose or water for 30 minutes; mutant vs wild type
# Protocol: To test whether non-leguminous LysM RLKs may be involved in the perception of chitooligosaccharides and the subsequent induction of downstream genes that have been implicated in fungal defense, T-DNA insertion mutants were obtained for all five LysM RLK genes (i.e., At1g51940, At2g23770, At2g33580, At3g01840, and At3g21630) in Arabidopsis. The gene At3g21630 (SEQ ID. No. 3) is also termed AtLYK1 or AtLysM RLK1. Homozygous mutants were then treated with a purified chitooligosaccharide (chitooctaose) and the expression levels of known CRGs, such as MPK3 (At3g45640, SEQ ID. No. 8), WRKY22 (At4g01250, SEQ ID. No. 9), WRKY29 (At4g23550, SEQ ID. No. 10), WRKY33 (At2g38470, SEQ ID. No. 11), and WRKY53 (At4g23810, SEQ ID. No. 12), were measured.
# More particularly, Arabidopsis seedlings were grown hydroponically as described by Ramonell et al., 2005. […]
# Total RNA was isolated using the Trizol Reagent according to the manufacturer's instructions (Invitrogen, Carlsbad, Calif.). […] For semi-quantitative RT-PCR or quantitative 17 PCR, cDNA was synthesized using M-MLV reverse transcriptase according to the manufacturer's instructions (Promega, Madison, Wis., USA). […]
# Both the mutant (Mu) and wildtype (WT) plants were treated with purified chitooctaose or water (as a control) for 30 minutes and gene expression of the selected CRGs was detected using semi-quantitative RT-PCR. […]
# [6] = system: selected CRGs (LjMPK3, LjWRKY22, LjWRKY33, LjWRKY53); assay: Semi-quantitative RT-PCR of selected CRGs in Lotus japonicus Nod signal receptor mutants; format: in vivo; conditions: chitooctaose 1 μM, 30 minutes; wild type Gifu as comparison
# Protocol: PCR reactions were conducted using Taq polymerase (Promega, Madison, Wis., USA) under the following conditions: 94° C., 3 minutes; 94° C., 30 seconds; 55° C., 30 seconds; 72° C., 1.5 minutes; 25 cycles; 72° C., 3 minutes. The corresponding CRG genes in Lotus japonicus were identified by blasting the cDNA sequences of the above Arabidopsis CRGs (and also actin-2) against the TIGR Lotus japonicus Gene Index. The closest hits were chosen and arbitrarily named after their Arabidopsis counterparts with the prefix Lj (standing for Lotus japonicus). The following primer pairs were designed to detect these genes:
# LjActin-2 was used as an internal control.
# LysM RLK NFR1 and NFR5 Nod signal receptors specifically recognize a lipochitin molecule with a back-bone of 4-5 units of N-acetyl-D-glucosamine. For review, see Stacey et al. 2006. […] In more details, both the wild type (Gifu) and the Nod signal receptor mutants nfr1-1 and nfr5-1 were treated with chitooctaose for 30 minutes at a concentration of 1 μM or with water (as a control). The selected CRGS were detected using semi-quantitative RT-PCR. LjActin-2 was used as an internal control.
# [7] = pretreatment of AtLysM RLK1 mutant plants
# [8] = pretreatment of wild-type plants
molecule,measurement,setting,value
chitooligosaccharides,share of CRGs whose regulation is blocked by the AtLysM RLK1 mutation,[1]; AtLysM RLK1 mutant vs wild type,~98%
same,induction of the AtLysM RLK1 gene,AtLysM RLK1 gene,induced
same,"resistance after pretreatment, A. brassicicola",Alternaria brassicicola; [7],did not enhance resistance
same,disease symptoms (lesion size and spore production) after A. brassicicola inoculation,Alternaria brassicicola; [8],reduced disease symptoms
same,"resistance after pretreatment, P. syringae pv. tomato DC3000",[2]; [7],did not enhance resistance
same,growth of the bacterial pathogen P. syringae pv. tomato DC3000,[2]; [8],inhibited the growth
chitin,increase in transcription of At2g23770,[3],2 fold
same,increase in transcription of At2g33580,[3],13 fold
same,increase in transcription of At3g21630,[3],2 fold
same,induction of soybean LysM RLK genes,soybean LysM RLK genes,induced
same,number of transcription factors whose expression is enhanced by chitin treatment,transcription factors,over 120 transcription factors
CC(=O)N[C@H]1[C@H](O[C@H]2[C@H](O)[C@@H](NC(C)=O)[C@H](O[C@H]3[C@H](O)[C@@H](NC(C)=O)[C@H](O[C@H]4[C@H](O)[C@@H](NC(C)=O)C(O)O[C@@H]4CO)O[C@@H]3CO)O[C@@H]2CO)O[C@H](CO)[C@@H](O[C@@H]2O[C@H](CO)[C@@H](O[C@@H]3O[C@H](CO)[C@@H](O[C@@H]4O[C@H](CO)[C@@H](O[C@@H]5O[C@H](CO)[C@@H](O)[C@H](O)[C@H]5NC(C)=O)[C@H](O)[C@H]4NC(C)=O)[C@H](O)[C@H]3NC(C)=O)[C@H](O)[C@H]2NC(C)=O)[C@@H]1O (some centres unmarked) [chitooctaose],number of down-regulated genes in wild-type plants,"[4]; 1.5 fold, P<0.05",227 genes
same,number of up-regulated genes in wild-type plants,"[4]; 1.5 fold, P<0.05",663 genes
same,number of genes that responded more than 1.5 fold (P<0.05) to chitooctaose elicitation,"[4]; in both the wild-type and mutant plants, 30 minutes after the treatment",909 genes
same,number of genes with a change in transcript levels in wild-type plants,"[4]; out of the 909 genes, 1.5 fold, P<0.05",890 genes
same,number of down-regulated genes in the mutant,[1]; AtLysM RLK1 mutant,17 genes
same,number of up-regulated genes in the mutant,[1]; AtLysM RLK1 mutant,16 genes
same,number of genes responsive in the mutant,"[1]; out of 909, AtLysM RLK1 mutant",33 genes
same,induction of the selected CRGs in the AtLysM RLK1 insertion mutant,[5],almost completely blocked the induction
same,induction of the selected CRGs in L. japonicus nfr1-1 and nfr5-1 mutants,[6],did not block the induction
